This is an account of results in US20080003250A1, “NOVEL THERAPY FOR HERPESVIRUS INFECTION” (priority 2006, published 2008).

For data set [1] the following is noted: cited from earlier work.
Data set [2] has as its system HSV-1 KOS infected Vero cells. The experiment in a line: Efficacy of implants at preventing cytopathic effect in cell culture. Type of data set: cell-based. Conditions: 48 hours post-infection; 0.22 ug ACV or two implants per well. Here is the method:
A six-well culture plate was prepared with 4 mL of Dulbecco's modified Eagles' medium (DMEM) (Invitrogen) supplemented with 10% fetal bovine serum and 1% penicillin-streptomycin-Amphotericin B solution (Mediatech) per well. […] The plate was incubated for two days at 37° C. and 5% CO2. Vero cells (ATCC CCL-81) were then added to each well and allowed to grow for another 48 hours until almost confluent. HSV-1 KOS (9.0×10^3 pfu) (ATCC VR-1493) was added to one of each of the paired wells, and 24 and 48 hours later the cells were photographed with a Nikon D1 2.6 megapixel digital camera, set in black and white mode, attached to an Olympus CK-40 microscope. The resulting digital images were compiled for presentation with Adobe Photoshop.
All mock-infected Vero cells remained healthy 48 hours after infection (FIGS. 8A-8C).
A general note: Damage to the host cells serves as the signal in cytopathic effect assays.

For another data set, the system named is HSV-1. Conditions: cited from earlier work.
The target of data set [3] is host eukaryotic DNA polymerase. To be noted: cited from earlier work.

With `CC(C)[C@H](N)C(=O)OCCOCn1cnc2c(=O)[nH]c(N)nc21` [valacyclovir], in data set [1], the “bioavailability, of the oral dose consumed” value is “about 50%”.

Take `Nc1nc2c(ncn2COCCO)c(=O)[nH]1` [ACV, acyclovir]: in data set [2], the “cytopathic effect (CPE) in HSV-1-infected Vero cells” value is on record as “Moderate CPE (cell rounding)” and the “plaque formation in HSV-1-infected Vero cells” value was “no plaque formation”. Moreover, the “50% inhibitory dose against HSV-1” value with HSV-1 is recorded as “about 0.03 ug/mL”.

For `Nc1nc2c(ncn2COCCOP(=O)(O)OP(=O)(O)OP(=O)(O)O)c(=O)[nH]1` [ACV-triphosphate, ACV triphosphate], the Ki (in general, a measure of affinity in units of concentration, obtained from inhibition or displacement) in data set [3] is 0.96 ± 0.08 µM.
